According to patent US5972980A, “Method for treating and preventing inflammation and atherosclerosis” (Warner-Lambert Company, priority 1999, dated 1999):
Like-named read-outs stand apart in the source and are kept apart here. Values belong to the molecule of their own block, whether it stands above or below them.

Legend:
[1] = biological target: T1, rabbit reticulocyte 15-LO (Oryctolagus cuniculus, UniProt P12530); assay: 15-LO inhibition, rabbit reticulocyte 15-LO with linoleic acid substrate, HPLC method of Auerbach et al.; type: biochemical
T1 construct: rabbit reticulocyte 15-LO; from tissue; host or cells: rabbit reticulocytes
T1 sequence (P12530 1-663): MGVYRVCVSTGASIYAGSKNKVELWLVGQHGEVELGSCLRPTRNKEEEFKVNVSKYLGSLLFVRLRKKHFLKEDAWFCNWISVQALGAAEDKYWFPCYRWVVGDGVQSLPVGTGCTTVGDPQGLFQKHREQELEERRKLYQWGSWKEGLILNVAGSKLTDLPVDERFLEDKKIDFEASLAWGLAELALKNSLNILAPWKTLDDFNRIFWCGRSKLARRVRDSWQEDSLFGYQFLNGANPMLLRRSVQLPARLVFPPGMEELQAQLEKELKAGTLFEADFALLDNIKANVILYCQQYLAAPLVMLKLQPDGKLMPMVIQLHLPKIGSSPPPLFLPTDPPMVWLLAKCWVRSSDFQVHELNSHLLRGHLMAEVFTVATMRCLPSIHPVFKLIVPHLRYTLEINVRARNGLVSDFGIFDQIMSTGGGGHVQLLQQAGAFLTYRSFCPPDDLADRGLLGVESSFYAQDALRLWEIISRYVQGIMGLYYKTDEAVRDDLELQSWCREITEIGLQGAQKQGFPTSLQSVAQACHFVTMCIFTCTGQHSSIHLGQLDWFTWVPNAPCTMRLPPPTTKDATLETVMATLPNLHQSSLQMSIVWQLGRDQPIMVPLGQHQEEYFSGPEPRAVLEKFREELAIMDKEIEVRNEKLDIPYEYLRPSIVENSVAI
Procedure: Two in vitro assays were utilized, both utilizing rabbit reticulocyte 15-LO, and linoleic acid as substrate, to enzymatically produce a peroxide oxidation product known as 13(S)-HPODE. N-Benzoyl leucomethylene blue was utilized as a calorimetric reagent for detection and quantification of the peroxide formation. Also, HPLC was utilized to quantify the oxidation following incubation at 4° C. for 10 minutes.

5-LO enzyme = biological target: T2, 5-LO enzyme (Homo sapiens, UniProt P09917); assay: 5-LO enzyme inhibition; type: biochemical
T2 sequence (P09917 1-674): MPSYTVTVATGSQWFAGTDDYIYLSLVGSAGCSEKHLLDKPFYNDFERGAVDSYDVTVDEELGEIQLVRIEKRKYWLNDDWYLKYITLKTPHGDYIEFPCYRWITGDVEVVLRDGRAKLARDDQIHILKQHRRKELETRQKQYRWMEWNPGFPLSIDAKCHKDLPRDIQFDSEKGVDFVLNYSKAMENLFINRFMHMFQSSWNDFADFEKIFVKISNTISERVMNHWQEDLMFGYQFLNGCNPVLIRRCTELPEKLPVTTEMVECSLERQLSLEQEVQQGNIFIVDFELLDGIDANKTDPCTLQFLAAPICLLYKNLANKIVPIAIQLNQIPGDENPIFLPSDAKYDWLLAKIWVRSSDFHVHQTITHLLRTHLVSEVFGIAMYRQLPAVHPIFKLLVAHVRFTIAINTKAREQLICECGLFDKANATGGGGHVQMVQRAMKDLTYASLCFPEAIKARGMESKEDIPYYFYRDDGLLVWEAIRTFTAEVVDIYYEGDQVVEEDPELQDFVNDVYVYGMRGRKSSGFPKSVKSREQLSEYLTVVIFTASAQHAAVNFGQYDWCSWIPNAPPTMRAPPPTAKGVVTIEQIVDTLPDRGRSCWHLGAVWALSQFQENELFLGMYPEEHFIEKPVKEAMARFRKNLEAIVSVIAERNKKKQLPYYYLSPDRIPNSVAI

[2] = tested on: atherosclerotic lesions in cholesterol-fed New Zealand White rabbits; assay: Atherosclerosis in cholesterol-fed rabbits, 12-week study (aortic lesion coverage, aortic cholesterol content); type: in vivo, rabbit; details: 350 mg/kg/day in food, 12 weeks
From the text: As further evidence of 15-LO inhibitors being effective to prevent and treat inflammation and atherosclerosis in animals, one representative compound has been extensively evaluated in cholesterol-fed rabbits over a 12-week period.
Specific pathogen-free New Zealand White rabbits (≈2.5 kg) were obtained from Myrtle's Rabbitry (Thompson Station, Tenn.). The animals were fed a standard laboratory diet (Ralston Purina, St. Louis, Mo.) and were allowed to become acclimatized for 7 days before initiation of the study, at which time two groups of rabbits (n=10 each) were begun on a diet enriched with cholesterol (0.25% wt/wt), peanut oil (3% wt/wt), and coconut oil (3% wt/wt), with a small amount of applesauce mixed into the food to enhance palatability. This diet was designed to produce a modest hypercholesterolemic response. The control group received no additional treatment. […] Rabbits were permitted access to 40 g of food at ≈12 hour intervals via automated feeders, and diet intake was monitored every day such that the animals received 175 mg/kg/bid. Water was available ad libitum. Body weights were measured at regular intervals throughout the 12-week study. Blood samples were obtained at the indicated intervals for determination of hematocrit and plasma lipid concentrations.
Rabbits were euthanized by an overdose of sodium pentobarbital (150 mg/kg^-1) and exsanguinated via the abdominal aorta. Aortas were removed from the valve to the ileal bifurcation, opened to expose the intima, and photographed with a Polaroid camera. By use of these photographs, the areas of grossly discernible atherosclerosis were manually integrated on a digitizing pad and calculated with SigmaScan (Jandel Scientific). Aortas were visually subdivided into three areas: arch (aortic valve to first intercostal), thoracic aorta (first intercostal to diaphragm area), and abdominal aorta (diaphragm to ileal bifurcation). In addition to extracting aortas, body tissues were surveyed for indications of adverse reactions.
Weighed segments of each aortic region (arch, thoracic, and abdominal) were extracted. Esterified and unesterified cholesterol content of aortic tissue were determined by gas chromatography using 5-α-cholestane as an internal standard.

[3] = Table 1, HPLC method, read-out: 15-LO IC50
[4] = Table 1, read-out: 5-LO (concentration to inhibit 50% of 5-LO activity)
[5] = Table 2, benzimidazoles, read-out: 15-LO IC50
[6] = Table 2, benzimidazoles, read-out: 5-LO IC50
[7] = Table 4, indoles, read-out: 15-LO IC50
[8] = Table 4, indoles, read-out: 5-LO IC50
[9] = read-out: 5-LO inhibitory activity IC50

SMILES: COc1ccc2c3c([nH]c2c1)-c1ccccc1SC3
IC50 [1, 3]: 4.5 µM
IC50 (5-LO enzyme; [4]): > 50 µM

SMILES: COc1ccc2[nH]c3c(c2c1)CSc1ccccc1-3
IC50 [1, 3]: 0.6 µM
IC50 (5-LO enzyme; [4]): > 10 µM

SMILES: COc1ccc2[nH]c3c(c2c1)COc1ccccc1-3
IC50 [1, 3]: 4 µM
IC50 (5-LO enzyme; [4]): > 50 µM

SMILES: COc1ccc2[nH]c3c(c2c1)CCc1ccccc1-3
IC50 [1, 3]: > 25 µM

SMILES: O=C(Cc1c[nH]c2ccccc12)Nc1ccccc1
IC50 [1, 7]: 1.5 µM
IC50 (5-LO enzyme; [8]): > 10 µM

SMILES: c1ccc2c(c1)ccc1c3ccccc3[nH]c21
IC50 [1]: 1.5 µM
IC50 (5-LO enzyme; Table 5, read-out: 5-LO IC50): > 10 µM

SMILES: Clc1ccc(-c2nc3ccc(Cl)cc3[nH]2)cc1 [2-(4-chlorophenyl)-5-chlorobenzimidazole]
15-LO to 5-LO ratio of activities ([1]; 15-LO versus 5-LO): greater than 10
IC50 [1, 5]: 0.65 µM
IC50 (5-LO enzyme; [6]): > 10 µM
IC50 (5-LO enzyme; [9]): > 10 µM

SMILES: CCCCCC#CCC#CCC#CCC#CCCCC(=O)O [CH3 (CH2)3 (CH2 --C≡C--)4 (CH2)3 --COOH]
IC50 ([1]; Table 5, read-out: 15-LO IC50): 0.75 µM
IC50 (5-LO enzyme; Table 5, read-out: 5-LO IC50): > 10 µM

SMILES: c1ccc2c(c1)SCc1c-2[nH]c2ccccc12 [Compound A, 6,11-dihydro[1]benzothiopyrano[4,3-b]-indole]
IC50 (5-LO enzyme; [4]): > 100 µM
IC50 (5-LO enzyme; [9]): > 100 µM
cholesterol esters, abdominal region ([2]; abdominal (control about 0.6)): no detectable cholesterol esters
lesion coverage, abdominal region ([2]; abdominal aorta (control 5%)): about 1%
unesterified cholesterol, thoracic and abdominal regions ([2]; about the same as control): 0.7-0.8 mg/g tissue wet weight
lesion coverage of intima, arch area ([2]; aortic arch (control about 15%)): no lesion coverage
unesterified cholesterol, arch region ([2]; arch (control about 1.4)): about 0.8 mg/g
cholesterol esters, arch region ([2]; arch (control about 2)): no detectable cholesterol esters
cholesterol esters, thoracic region ([2]; thoracic (control none)): no detectable cholesterol esters
lesions, thoracic region ([2]; thoracic aorta): No detectable lesions

SMILES: c1csc(-c2csc(-c3nc4ccccc4[nH]3)n2)c1 [drawing 26 (R2=H, R3=H, R10=H, R11=drawing 27)]
IC50 [1, 5]: 1.5 µM
IC50 (5-LO enzyme; [6]): > 10 µM

SMILES: COc1ccc(/C=C/C(=O)c2cccs2)cc1 [drawing 31 (R2=H, R3=4-OCH3, Het=drawing 32)]
IC50 ([1]; Table 3, styrenes, read-out: 15-LO IC50): 1.6 µM
IC50 (5-LO enzyme; Table 3, styrenes, read-out: 5-LO IC50): > 10 µM

Other lines, results leading:

IC50 [1, 3]: 26 µM
SMILES: COc1ccc2c(c1)[nH]c1c3ccccc3[s+]cc21

IC50 [1, 3]: 0.7 µM
IC50 (5-LO enzyme; [4]): > 9.6 µM
SMILES: COc1ccc2[nH]c3c4ccccc4[s+]cc3c2c1

IC50 [1, 3]: 0.5 to 2 µM
IC50 (5-LO enzyme; [4]): > 32 µM
SMILES: c1ccc2c(c1)[nH]c1c3cc4c(cc3[s+]cc21)CCCC4

IC50 [1, 3]: > 25 µM
SMILES: COc1ccc2[nH]c3c4ccccc4ncc3c2c1

IC50 [1, 5]: 0.7 µM
IC50 (5-LO enzyme; [6]): > 10 µM
SMILES: Clc1ccc2[nH]c(-c3ccccc3)nc2c1

IC50 [1, 7]: 4 µM
IC50 (5-LO enzyme; [8]): > 10 µM
SMILES: O=C(Nc1cccc(Cl)c1)Sc1c[nH]c2ccccc12

IC50 ([1]; Table 5, read-out: 15-LO IC50): 2 µM
IC50 (5-LO enzyme; Table 5, read-out: 5-LO IC50): > 30 µM
SMILES: Clc1ccc2c(c1)Nc1c(ccc3ccccc13)S2

IC50 [1, 3]: 1.9 µM
SMILES: Cc1ccc2[s+]cc3c4ccccc4[nH]c3c2c1 [drawing 19 (R2=H, R3=H, R4=CH3, R5=H, R8=H)]

IC50 [1, 3]: 12 µM
SMILES: Clc1ccc2[s+]cc3c4ccccc4[nH]c3c2c1 [drawing 19 (R2=H, R3=H, R4=Cl, R5=H, R8=H)]

IC50 [1, 3]: 1 to 4 µM
SMILES: Cc1ccc2c(c1)[s+]cc1c3ccccc3[nH]c21 [drawing 19 (R2=H, R3=H, R4=H, R5=CH3, R8=H)]

IC50 [1, 3]: > 25 µM
SMILES: Cc1[s+]c2ccccc2c2[nH]c3ccccc3c12 [drawing 19 (R2=H, R3=H, R4=H, R5=H, R8=CH3)]

IC50 [1, 3]: 1 to 4 µM
SMILES: c1ccc2c(c1)[nH]c1c3ccccc3[s+]cc21 [drawing 19 (R2=H, R3=H, R4=H, R5=H, R8=H)]

IC50 [1, 3]: 0.48 µM
IC50 (5-LO enzyme; [4]): > 10 µM
SMILES: O=[N+]([O-])c1ccc2[s+]cc3c4ccccc4[nH]c3c2c1 [drawing 19 (R2=H, R3=H, R4=NO2, R5=H, R8=H)]

IC50 [1, 3]: 3.8 µM
IC50 (5-LO enzyme; [4]): 22 µM
SMILES: c1ccc2c(c1)c[s+]c1c3ccccc3[nH]c21 [drawing 20 (R2=H, R3=H, R4=H, R5=H, R8=H)]
